# In patent US5457099A, “Carbostyril derivatives and antiallergic agent” (Sawai Pharmaceutical Co., Ltd., priority 1992, dated 1995):
# Where two headings read alike, the source gives them in different places.
# Key:
# Male IcR mice = assay: Acute toxicity in mice; format: in vivo; conditions: p.o. and i.p.
# Description: (§1) Antiserum was prepared according to the method described in J. Immunol., 106, 1002 (1971). The titer (or highest effective dilution which gave a mean 48 hours PCA response of 5 mm in diameter in a rat) of the antiserum used was 1:200.
# (§2) Male IcR mice (SPF) (Nippon SLC, weight:24-32 g) of 4 weeks age were fasted for 5 hours before the test. The test compound (III-2) was administered in the form of a suspension in 0.5% carboxymethylcellulose sodium salt (0.2 ml per 10 g). Survived and dead animals were autopsied at day 14 and immediately after the death, respectively.
# Acute toxicity in mice = format: in vivo; conditions: mouse, in vivo, suspension in 0.5% carboxymethylcellulose sodium
# Description: as §1, §2
# blood TXA2 [1] = assay: Blood thromboxane (TX)A2 in sensitized guinea pigs; format: in vivo, Hartley guinea pigs
# Description: (§3) Male Wistar rats of 7 weeks old and weighing about 280 g were passively sensitized with rat anti-ovalbumin anti-serum prepared according to the method of Tada and Okumura. Similarly, Hartley guinea pigs of 8 weeks old and weighing about 500 g were passively sensitized with guinea pig anti-ovalbumin antiserum prepared by immunizing with a mixed emulsion of ovalbumin and complete Freund's adjuvant (4.5:5.5) .
# (§4) After 24 hours, trachea was incised under urethane ansthetiziation and cannulated with a respirator. Ovalbumin was intravenously administered to elicit the reaction while observing airway resistance according to a modified Konzett and Roessler method. Drugs were orally administered before 1 hour of elicitation of reaction. Blood samples were drawn from artery of rats and guinea pigs before the elicitaiton and after 8 minutes and 15 minutes, respectively, of the elicitation. The obtained blood samples were immediately mixed with 10 mM EDTA disodium and 0.4 mM indomethacin and centrifuged to separate blood plasma. TXB2, a metabolite of TXA2, in the blood plasma was partially purified by C18 column and determined by Enzyme Immunoassay Kit.
# [2] = test system: experimental asthma in rats; assay: Inhibition of experimental asthma in rats; format: in vivo, Wistar rats; conditions: Rattus norvegicus, po; for inhibition in vivo at 10 mg/kg: read-out: Inhibition of Experimental Asthma in rat
# Description: as §1
# Wistar rats were passively sensitized by injection into caudal vein of 2.0ml/animal antiserum. After 24 hours, anaphylactic airway contraction caused by administration of antigen was measured by a modified Konzett and Roessler method. Briefly, the animal was fixed at dorsal position under urethane (1.5 g/kg, i.p.) anesthetization and connected with a respirator (Harvard Model 683, respiratory volume: 3-5 ml/respiration; respiratory rate: 72/minute) via an incised tracheal cannula. […] Oxatomide was administered two hours before the test, which is the optimal conditions according to Nippon Yakurigaku Zasshi (Japanese Journal of Pharmacology), 80, 261 (1982), and the other test drugs were orally administered at a rate of 0.2 ml/100 g body weight one hour before the test using a gastric tube. At the end of measurement, the trachea was blocked with a Kocher clamp and the measured values were expressed in percent taking the value at blockage as the maximum contraction (100%).
# [3] = test system: experimental asthma in guinea pigs; assay: Inhibition of experimental asthma in guinea pigs; format: in vivo, Male Hartley guinea pigs; conditions: p.o., 1 mg/kg; significance vs. control: * p < 0.05, *** p < 0.001
# Description: Male Hartley guinea pigs (N=10) were passively sensitized by intravenous injection of guinea pig antiovalbumin antiserum (titer for 3 hours PCA: 16000 times) diluted 5 times with physiological saline at a rate of 0.2 ml/animal. After 24 hours, the animal was fixed at dorsal position under urethane anesthetization and connected with a respirator (Harvard Model 683, respiratory volume: 4-6 ml/respiration; respiratory rate: 40/minute) via an incised tracheal cannula. Then 1 mg/kg Gallamine triethiodide was intravenously administered to stop the spontaneous respiration. […] Oxatomide was administered two hours before the challenge by antigen and the test drug (compound III-2) and Ketotifen were administered orally 1 hour before the challenge.
# blood TXA2 [4] = assay: Blood thromboxane (TX)A2 in sensitized rats; format: in vivo, Male Wistar rats; conditions: 1 mg/kg orally
# Description: as §3, §4
# [5] = test system: passive cutaneous anaphylaxis (PCA) reaction in rats; assay: Inhibition of PCA reaction in rats; format: in vivo, Wistar rats; conditions: Rattus norvegicus, po; for inhibition in vivo at 10 mg/kg: read-out: Inhibition of PCA in rat
# Description: as §1
# Wistar rats were passively sensitized by intracutaneous injection of 0.05 ml antiserum diluted 75 times with physiological saline at two sheared sites of dorsal skin. After 48 hours, 0.5ml/animal of 1% Evans blue-physiological saline containing 2mg ovalbumin was administered into caudal vein to elicit the reaction. After 30 minutes, rats were sacrificed by decapitative bleeding and the dorsal skin was flayed. Dye stuff exuded at the reaction site was extracted according to the method described in Microbiol. Immunol., 22, 89 (1978). Briefly, two circular pieces of sensitized areas and one circular piece of unsensitized area (as the control) were punched at 1.8 cm diameter. The disks were placed in test tubes and treated overnight with 1 ml 1N-KOH at 37° C. Then 9ml 0.6N-H3 PO4 /acetone (5/13) was added and the mixture was thoroughly stirred and centrifuged (3000 rpm, 10 minutes). The supernatant was assayed for absorption at 620 nm. The amount of dye stuff was calculated from the standard curve previously prepared with known amounts of Evance blue. The conditions of sensitization and the amount of antigen were based on Nippon Yakurigaku Zasshi (Japanese Journal of Pharmacology),80, 261 (1982).
# Test drugs and Oxatomide as a positive control were administered orally before 1 hour of elicitation through a gastric tube at 1 ml/200g body weight. In the test, groups of 6 to 7 animals and groups of 8 to 9 animals were used for test drugs and control, respectively.
structure (smiles),measurement,setting,value
"O=c1cc(CCN2CCC(c3c[nH]c4ccccc34)CC2)c2ccccc2[nH]1 [III-2, 4-[2-[4-(1H-indol-3-yl)-1-piperidinyl]ethyl]-2-(1H)-quinolinone]",Acute toxicity (in words),Male IcR mice,low toxity
same,LD50 at 336 h,"Acute toxicity in mice; ip, read-out: LD50 for i.p.",> 1000 mg/kg
same,LD50 at 336 h,"Acute toxicity in mice; po, read-out: LD50 for p.o.",> 3000 mg/kg
same,Blood TXA2 before reaction,"blood TXA2 [1]; 3 mg/kg orally 1 hour before elicitation, n = 5",0.26 ± 0.05 ng/mL
same,Inhibition of blood TXA2 increase,"blood TXA2 [1]; 3 mg/kg orally, n = 5",94.4%
same,Blood TXA2 after reaction,"blood TXA2 [1]; 3 mg/kg orally, n = 5, *p < 0.05 vs. control",0.28 ng/mL
same,inhibition in vivo at 10 mg/kg,[2],94.8%
same,inhibition in vivo at 0.1 mg/kg,[2]; other dosage/kg: 0.1 mg,27.5%
same,inhibition in vivo at 0.3 mg/kg,[2]; other dosage/kg: 0.3 mg,84.3%
same,inhibition in vivo at 1 mg/kg,[2]; other dosage/kg: 1 mg,73%
same,inhibition in vivo at 3 mg/kg,[2]; other dosage/kg: 3 mg,95.5%
same,Inhibition % of experimental asthema in guinea pig,[3],70.3%
same,Inhibition of blood TXA2 increase,blood TXA2 [4]; n = 11,68.7%
same,Blood TXA2 after reaction,"blood TXA2 [4]; n = 11, ***p < 0.001 vs. control",0.45 ng/mL
same,inhibition in vivo at 10 mg/kg,[5],67.4%
same,inhibition in vivo at 30 mg/kg,[5]; other dosage/kg: 30 mg,74.6%
CN1CCC(=C2c3ccccc3CC(=O)c3sccc32)CC1 [Ketotifen],Inhibition % of experimental asthema in guinea pig,[3],50.4%
"O=c1[nH]c2ccccc2n1CCCN1CCN(C(c2ccccc2)c2ccccc2)CC1 [Oxatomide, 1-[3-{4-(diphenylmethyl)-1-piperazinyl}propyl]-1,3-dihydro-2H-benzimidazol-2-one]",Inhibition % of experimental asthema in guinea pig,[3],43.7%
"O=c1cc(-c2ccccc2)c2ccccc2n1CCCN1CCC(c2c[nH]c3ccccc23)CC1 [VII-5, 1-[3-[4-(1H-indol-3-yl)-piperidinyl]propyl]-4-phenyl-2(1H)-quinolinone]",inhibition in vivo at 10 mg/kg,[2],50.1%
same,inhibition in vivo at 10 mg/kg,[5],6.7%
"O=c1cc(-c2ccc(Cl)cc2)c2ccccc2n1CCCN1CCC(c2c[nH]c3ccccc23)CC1 [VII-6, 4-(4-chlorophenyl)-l-[3-[4-(1H-indol-3-yl)-1-piperidinyl]propyl]-2(1H)-quinolinone]",inhibition in vivo at 10 mg/kg,[2],19.3%
same,inhibition in vivo at 10 mg/kg,[5],9.4%
"Cc1ccc(-c2cc(=O)n(CCCN3CCC(c4c[nH]c5ccccc45)CC3)c3ccccc23)cc1 [VII-7, 1-[3-[4-(1H-indol-3-yl)-piperidinyl]propyl]-4-(4-methylphenyl)-2(1H)-quinolinone]",inhibition in vivo at 10 mg/kg,[2],13.1%
same,inhibition in vivo at 10 mg/kg,[5],18.5%
